From patent EP4603105A1, “PHARMACEUTICAL COMPOSITION CONTAINING CYCLIC COMPOUND HAVING SELECTIVE KRAS INHIBITORY EFFECT AGAINST HRAS AND NRAS” (CHUGAI SEIYAKU KABUSHIKI KAISHA, priority 2022, dated 2024) come the findings set out here.

pIC50, pKd: −log10 of the molar value.

For assay [1], the target named is GDP-bound KRAS wild-type protein (Homo sapiens, UniProt P01116). The experiment in a line: Binding to KRAS by surface plasmon resonance (SPR), dissociation constant KD. Summed up:
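Recombinant RAS proteins bearing a biotinylated Avi tag and loaded with GDP served as the captured ligand, recaptured fresh every cycle. Binding responses were referenced to an uncoated surface and a buffer-only blank cycle. Dissociation constants were obtained by 1:1 model fitting at 30°C.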

For assay [2], the target named is GDP-bound NRAS wild-type protein (Homo sapiens, UniProt P01111). In words: Binding to NRAS by surface plasmon resonance (SPR), KD and KD ratio to KRAS. Summed up:
(§1)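 Affinity is measured by surface plasmon resonance at 30°C against captured, GDP-loaded RAS carrying a biotinylated Avi tag. Compounds are titrated by single-cycle kinetics, and KD comes from a 1:1 fit.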

In another assay the target is HRAS wild-type protein (Homo sapiens, UniProt P01112). In words: Binding to HRAS by surface plasmon resonance (SPR), KD and KD ratio to KRAS. Summed up: as §1
Assay [3] relates to human lung cancer strain NCI-H441. It counts as cell-based. Summed up:
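Readout: […] after the ATP-based reagent. Compound: serial dilutions in dimethyl sulfoxide.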

Assay [4] concerns human gastric cancer strain SNU-1. It counts as cell-based. In short, it runs like this:
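SNU-1 gastric cancer cells, 250 cells/well in RPMI-1640 with 10% FBS, glucose, HEPES and sodium pyruvate, plated onto serially diluted compound in DMSO.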

In assay [5] the test system is human pancreatic cancer strain KP4. It is filed as cell-based. Summed up:
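KP4 pancreatic cancer cells seeded at 500 cells/well in DMEM/Ham's F-12 with 10% FBS onto serially diluted compound. Viability read by CellTiter-Glo luminescence.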

In assay [6] the test system is human colorectal cancer strain GP2d. It is filed as cell-based. Summed up:
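Cells seeded at 500 cells/well in DMEM with 10% FBS onto serially diluted compound in DMSO, then cultured 7 days at 37°C, 5% CO2. Viability read by CellTiter-Glo luminescence.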

For assay [7], the system named is human gastric cancer strain GSU. It counts as cell-based. In short, it runs like this:
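Cells seeded at 200 per well in RPMI-1640 with 10% FBS onto serially diluted compound (DMSO) in U-bottom plates. Viability read by CellTiter-Glo luminescence.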

For assay [8], the system named is human ovarian cancer strain OV7. It is filed as cell-based. In short, it runs like this:
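OV7 cells, 250 per well, in DMEM/Ham's F-12 with 5% FBS, 0.5 µg/mL hydrocortisone and 10 µg/mL insulin, grown 7 days at 37°C with serially diluted compound. Viability by CellTiter-Glo luminescence.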

The test system of assay [9] is human bladder cancer strain UM-UC-3. It counts as cell-based. Summed up:
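UM-UC-3 human bladder cancer cells were seeded at 250 cells/well onto serially diluted compound in MEM with 10% FBS. Viability was read as CellTiter-Glo luminescence.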

The mark [10] stands for this setting: ratio of KD for GDP-bound NRAS wild-type protein to KD for KRAS.
[11] abbreviates: ratio of KD for HRAS wild-type protein to KD for KRAS.
[12] abbreviates: Single Cycle Kinetics, 1:1 binding model.

Sequence of GDP-bound KRAS wild-type protein (P01116 1-188 isoform P01116-2): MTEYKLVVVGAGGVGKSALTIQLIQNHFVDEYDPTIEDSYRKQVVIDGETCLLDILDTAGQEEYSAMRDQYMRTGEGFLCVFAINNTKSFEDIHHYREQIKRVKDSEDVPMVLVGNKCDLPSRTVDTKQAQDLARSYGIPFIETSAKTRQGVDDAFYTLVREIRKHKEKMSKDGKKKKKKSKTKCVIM
Sequence of GDP-bound NRAS wild-type protein (P01111 whole entry): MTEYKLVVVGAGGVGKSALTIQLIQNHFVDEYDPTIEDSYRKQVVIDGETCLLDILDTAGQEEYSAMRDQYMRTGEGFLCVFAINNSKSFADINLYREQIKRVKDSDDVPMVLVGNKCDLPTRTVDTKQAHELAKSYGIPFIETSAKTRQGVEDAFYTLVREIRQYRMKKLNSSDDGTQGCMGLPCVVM
Sequence of HRAS wild-type protein (P01112 whole entry): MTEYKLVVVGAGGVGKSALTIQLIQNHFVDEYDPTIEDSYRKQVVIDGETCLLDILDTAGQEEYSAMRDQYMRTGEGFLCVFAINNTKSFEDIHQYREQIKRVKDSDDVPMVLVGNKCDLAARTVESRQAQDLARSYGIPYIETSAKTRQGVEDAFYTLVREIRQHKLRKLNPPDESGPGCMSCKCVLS

Broadly, the pKd is −log10 of the Kd, conventionally taken in molar units. Lower therefore signals a large Kd. As usually defined, the pIC50 is −log10 of the IC50, conventionally taken in molar units. Low readings indicate a large IC50, high ones a small IC50. In [1] (Single Cycle Kinetics), `CCC[C@H]1C(=O)N[C@@H]([C@@H](C)CC)C(=O)N(C)CC(=O)N(C)[C@H]2C/C=C\CCN(C2=O)[C@@H](Cc2ccc(C(F)(F)F)cc2)C(=O)N(C)CC(=O)N[C@@H](CCc2cc(F)c(C(F)(F)F)c(F)c2)C(=O)N2CC3(CC3)C[C@H]2C(=O)N(C)C2(CCC2)C(=O)N(C)[C@@H](C2CCCC2)C(=O)N(C)[C@H](C(=O)N(C)C)CC(=O)N1C` [PP3356] had a pKd of 10.36. The “NRAS /KRAS” value in [2] (setting [10]) was “A (a compound having 10 or more and less than 20 is denoted as A)”. Besides, at HRAS wild-type protein (setting [11]), the “HRAS /KRAS” value is “A (a compound having 10 or more and less than 20 is denoted as A)”. Further, the pIC50 was 8.64 in assay [3]; 8.40 in [4]; 8.31 in assay [5]; 8.82 in [6]; 9.00 in assay [7]; 8.60 in assay [8]. In [9], this compound showed a pIC50 of 8.89.

As to `CCC(CC)[C@H]1C(=O)N(C)[C@H](C(=O)N(C)C)CC(=O)N(C)[C@@H](COC)C(=O)N[C@@H]([C@@H](C)CC)C(=O)N(C)CC(=O)N(C)[C@H]2C/C=C\CCN(C2=O)[C@@H](Cc2ccc(C)cc2)C(=O)N(C)CC(=O)N[C@@H](CCc2ccc(C(F)(F)F)c(Cl)c2)C(=O)N2CC3(CC3)C[C@H]2C(=O)NC2(CC(C)(C)C2)C(=O)N1C` [PP2967], the pKd in assay [1] (1:1 binding model) was 9.39. Moreover, the “NRAS /KRAS” value in assay [2] (setting [10]) is “AA (a compound having 20 or more is denoted as AA)”. For the same compound, the “HRAS /KRAS” value at HRAS wild-type protein (setting [11]) was “A (a compound having 10 or more and less than 20 is denoted as A)”. The pIC50 in [3] is 7.77; in assay [4], 7.45; in [5], 7.21; in assay [6], 7.57; in [7], 8.28; in assay [8], 7.24. Also, in assay [9], the pIC50 is 7.67.

`CCO[C@@H]1C[C@H]2C(=O)OC3(CCC3)C(=O)N(C)[C@@H](C3CCCC3)C(=O)N(C)[C@H](C(=O)N(C)C)CC(=O)N(C)[C@@H]([C@@H](C)OC)C(=O)N[C@@H]([C@@H](C)CC)C(=O)N3CCC[C@H]3C(=O)N(C)[C@H]3C/C=C\CCN(C3=O)[C@@H](Cc3ccc(C(F)(F)F)cc3)C(=O)N(C)CC(=O)N[C@@H](CCc3ccc(C(F)(F)F)c(OC)c3)C(=O)N2C1` [PP3374] showed a negative logarithm of the Kd (pKd) in [1] (Single Cycle Kinetics) of 9.39. Moreover, in assay [2] (setting [10]), the “NRAS /KRAS” value is “A (a compound having 10 or more and less than 20 is denoted as A)”. In addition, the “HRAS /KRAS” value on HRAS wild-type protein (setting [11]) was “A (a compound having 10 or more and less than 20 is denoted as A)”. The pIC50 in assay [3] is 8.23; in assay [4], 8.13; in assay [5], 8.09; in [6], 8.16; in assay [7], 8.72; in [8], 7.80. The same compound gave a pIC50 in assay [9] of 8.20.

As for `CCC[C@H]1C(=O)N[C@@H]([C@@H](C)CC)C(=O)N(C)CC(=O)N(C)[C@H]2C/C=C\CCN(C2=O)[C@@H](Cc2ccc(C(F)(F)F)cc2)C(=O)N(C)CC(=O)N[C@@H](CCc2ccc(Cl)c(Cl)c2)C(=O)N2C[C@H](OCC)C[C@H]2C(=O)NC2(CC(C)(C)C2)C(=O)N(C)[C@@H](C(CC)CC)C(=O)N(C)[C@H](C(=O)N(C)C)CC(=O)N1C` [PP2175, (2S,8S,12R,14S,20S,23S,27S,30S,36S,38Z)-8-[2-(3,4-dichlorophenyl)ethyl]-12-ethoxy-20-(1-ethylpropyl)-N,N,3',3',4,19,22,26,32,35-decamethyl-30-[(1S)-1-methylpropyl]-3,6,9,15,18,21,25,28,31,34,42-undecaoxo-27-propyl-2-[[4-(trifluoromethyl)phenyl]methyl]spiro[1,4,7,10,16,19,22,26,29,32,35-undecazatricyclo[34.5.1.0^10,14]dotetracont-38-ene-17,1'-cyclobutane]-23-carboxamide], the pKd in assay [1] (setting [12]) was 9.35. The “NRAS /KRAS” value in [2] (ratio of the KD value with respect to GDP-bound NRAS wild-type protein to the KD value with respect to KRAS) was “AA (a compound having 20 or more is denoted as AA)”. For the same compound, the “HRAS /KRAS” value at HRAS wild-type protein (ratio of the KD value with respect to HRAS wild-type protein to the KD value with respect to KRAS) is “A (a compound having 10 or more and less than 20 is denoted as A)”. Besides, the pIC50 in [3] was 7.59; in [4] it was 7.70; in assay [5], 6.99; in assay [6], 7.61; in assay [7], 9.30; in assay [8], 7.10. In assay [9], this compound gave a pIC50 of 7.71.

Compound `CCC[C@H]1C(=O)N[C@@H]([C@@H](C)CC)C(=O)N(C)CC(=O)N(C)[C@H]2C/C=C\CCN(C2=O)[C@@H](Cc2ccc(C(F)(F)F)cc2)C(=O)N(C)CC(=O)N[C@@H](CCc2ccc(C(F)(F)F)c(Cl)c2)C(=O)N2CC3(CC3)C[C@H]2C(=O)NC2(CCC2)C(=O)N(C)[C@@H](C(CC)CC)C(=O)N(C)[C@H](C(=O)N(C)C)CC(=O)N1C` [PP3414] showed a pKd in assay [1] (Single Cycle Kinetics) of 9.43. Moreover, the “NRAS /KRAS” value in assay [2] (setting [10]) is reported as “AA (a compound having 20 or more is denoted as AA)”. Further, the “HRAS /KRAS” value at HRAS wild-type protein (setting [11]) was “A (a compound having 10 or more and less than 20 is denoted as A)”. Also, the pIC50 was 7.92 in [3]; 7.71 in [4]; 7.53 in assay [5]; 7.89 in assay [6]; 8.37 in [7]; 7.29 in [8]. The pIC50 in assay [9] was 7.54.

For the compound `CCCC[C@H]1C(=O)N[C@@H]([C@@H](C)CC)C(=O)N(C)CC(=O)N(C)[C@H]2C/C=C\CCN(C2=O)[C@@H](Cc2ccc(C(F)(F)F)cc2)C(=O)N(C)CC(=O)N[C@@H](CCc2cc(F)c(C(F)(F)F)c(F)c2)C(=O)N2C[C@H](F)C[C@H]2C(=O)NC2(CC(C)(C)C2)C(=O)N(C)[C@@H](C2CCCC2)C(=O)N(C)[C@H](C(=O)N(C)C)CC(=O)N1C` [PP1693, (2S,8S,12R,14S,20S,23S,27S,30S,36S,38Z)-27-butyl-20-cyclopentyl-8-[2-[3,5-difluoro-4-(trifluoromethyl)phenyl]ethyl]-12-fluoro-N,N,3',3',4,19,22,26,32,35-decamethyl-30-[(1S)-1-methylpropyl]-3,6,9,15,18,21,25,28,31,34,42-undecaoxo-2-[[4-(trifluoromethyl)phenyl]methyl]spiro[1,4,7,10,16,19,22,26,29,32,35-undecazatricyclo[34.5.1.0^10,14]dotetracont-38-ene-17,1'-cyclobutane]-23-carboxamide], the pKd in [1] (setting [12]) was 10.57. In addition, the “NRAS /KRAS” value in assay [2] (ratio of KD value for GDP-bound NRAS wild-type protein to KD value for KRAS (SPR)) is “AA (a compound having 20 or more is denoted as AA)”. The “HRAS /KRAS” value at HRAS wild-type protein (ratio of KD value for HRAS wild-type protein to KD value for KRAS (SPR)) is “A (a compound having 10 or more and less than 20 is denoted as A)”. The pIC50 was 8.96 in [3]; 8.37 in assay [4]; 7.85 in assay [5]; 8.62 in [6]; 9.30 in [7]; 8.13 in [8]. The pIC50 in assay [9] is 8.39.
